In the supplement of paper PMC4862054:
Where “and” joins values, the source holds several entries; their conditions need not be identical. Equal entries are not always repeated.

Legend:
Conditions in all cases: incubation time: 72 h
BT-474 [1] = assay: normalised viability (% of control), CellTiter-Blue; higher = more viable cells (about 100 = DMSO control)
Summary of the method: (§1)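 Breast cancer cell lines in 20 µl suspension were seeded onto 384-well plates pre-loaded with compound dissolved in 5 µl medium, then incubated 72 h. CellTiter-Blue reagent (2.5 µl) was added for 2 h at 37 °C and fluorescence read at 560/590 nm. Each plate was normalised to vehicle (100) and a positive kill control (0), with Z'-factor quality control. The value is normalised viability at one listed concentration of the series.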

BT-549 [2] = assay: as above
Summary of the method: as §1

CAL-148 [3] = assay: as above
Summary of the method: as §1

CAL-51 [4] = assay: as above
Summary of the method: as §1

CAL-85-1 [5] = assay: as above
Summary of the method: as §1

HCC1143 = assay: as above
Summary of the method: as §1

HCC1599 [6] = assay: as above
Summary of the method: as §1

Hs578T [7] = assay: as above
Summary of the method: as §1

MDA-MB-453 [8] = assay: as above
Summary of the method: as §1

MDA-MB-468 [9] = assay: as above
Summary of the method: as §1

MFM-223 = assay: as above
Summary of the method: as §1

BT-474 [10] = assay: drug sensitivity score (DSS), CellTiter-Blue viability (DSS (AUC-based score)); higher = stronger viability inhibition; extreme values may be limits of the assay
Summary of the method: (§2)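 Drug sensitivity scores correspond to the area under the fitted dose-response curve. Breast cancer cell lines were incubated 72 h with compound at 5 or 9 concentrations in 384-well plates. Viability, read as CellTiter-Blue fluorescence at 560/590 nm, was normalised per plate to 0.1 % DMSO and a positive kill control.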

BT-549 [11] = assay: as above
Summary of the method: as §2

CAL-148 [12] = assay: as above
Summary of the method: as §2

CAL-51 [13] = assay: as above
Summary of the method: as §2

CAL-85-1 [14] = assay: as above
Summary of the method: as §2

HCC1599 [15] = assay: as above
Summary of the method: as §2

HDQ-P1 = assay: as above
Summary of the method: as §2

Hs578T [16] = assay: as above
Summary of the method: as §2

MDA-MB-231 = assay: as above
Summary of the method: as §2

MDA-MB-436 = assay: as above
Summary of the method: as §2

MDA-MB-453 [17] = assay: as above
Summary of the method: as §2

MDA-MB-468 [18] = assay: as above
Summary of the method: as §2

SK-BR-3 = assay: as above
Summary of the method: as §2

NC(=O)c1cccc2cn(-c3ccc([C@@H]4CCCNC4)cc3)nc12 [MK-4827]
normalised viability [%]
Conditions	3 nM	10 nM	30 nM	100 nM	1000 nM	10000 nM
BT-474 [1]	–	119	–	–	100	92.7
BT-549 [2]	–	79.1	–	–	93.3	72.4
CAL-51 [4]	112	–	105	104	–	–
CAL-85-1 [5]	95.8	–	92	93.1	–	–
CAL-148 [3]	97.7	–	98.2	95.8	–	–
HCC1143	–	88.9	–	–	85	64.6
HCC1599 [6]	–	93.4	–	–	116	93.3
Hs578T [7]	–	96.2	–	–	93.7	80.7
MDA-MB-453 [8]	116	–	90.8	93.3	–	–
MDA-MB-468 [9]	–	101	–	–	89	50.4
MFM-223	–	92.4	–	–	96.4	111

Conditions	drug sensitivity score
BT-474 [10]	0
BT-549 [11]	0
CAL-51 [13]	5.3
CAL-85-1 [14]	0
CAL-148 [12]	2.86
HCC1599 [15]	0
HDQ-P1	0
Hs578T [16]	0
MDA-MB-231	0
MDA-MB-436	0
MDA-MB-453 [17]	0
MDA-MB-468 [18]	0
SK-BR-3	0

N[C@@H](Cc1ccc(N(CCCl)CCCl)cc1)C(=O)O [Melphalan]
normalised viability [%]
Conditions	0.297 nM	0.99 nM	2.97 nM	9.9 nM	99 nM	990 nM
BT-474 [1]	–	99.9	–	–	98	99.1
BT-549 [2]	–	92.7	–	–	115	89.3
CAL-51 [4]	105	–	102	107	–	–
CAL-85-1 [5]	94.8	–	91.2	96.6	–	–
CAL-148 [3]	92.6	–	94.5	91.4	–	–
HCC1143	–	67.8	–	–	70.3	67.8
HCC1599 [6]	–	102	–	–	82.1	90.7
Hs578T [7]	–	98.4	–	–	82	73
MDA-MB-453 [8]	105	–	101	102	–	–
MDA-MB-468 [9]	–	95.7	–	–	99.7	63
MFM-223	–	90	–	–	84.7	99.3

Conditions	drug sensitivity score
BT-474 [10]	0
BT-549 [11]	0
CAL-51 [13]	0
CAL-85-1 [14]	0
CAL-148 [12]	0
HCC1599 [15]	0
HDQ-P1	0
Hs578T [16]	3.68
MDA-MB-231	0
MDA-MB-436	0
MDA-MB-453 [17]	0
MDA-MB-468 [18]	0
SK-BR-3	0

Cc1c(C(=O)Nc2ccc(N3C[C@@H](C)O[C@@H](C)C3)nc2)cccc1-c1ccc(OC(F)(F)F)cc1 [NVP-LDE225]
normalised viability [%]
Conditions	3 nM	10 nM	30 nM	100 nM	1000 nM	10000 nM
BT-474 [1]	–	96.5	–	–	101	63.5
BT-549 [2]	–	113	–	–	96	97.3
CAL-51 [4]	105	–	101	101	–	–
CAL-85-1 [5]	100	–	86	104	–	–
CAL-148 [3]	99.6	–	101	106	–	–
HCC1143	–	108	–	–	102	96.4
HCC1599 [6]	–	105	–	–	90.5	102
Hs578T [7]	–	118	–	–	107	87
MDA-MB-453 [8]	98.9	–	88.7	105	–	–
MDA-MB-468 [9]	–	109	–	–	109	91.9
MFM-223	–	93.5	–	–	93.8	88.2

Conditions	drug sensitivity score
BT-474 [10]	0
BT-549 [11]	0
CAL-51 [13]	0
CAL-85-1 [14]	0
CAL-148 [12]	0
HCC1599 [15]	0
HDQ-P1	0
Hs578T [16]	0
MDA-MB-231	0
MDA-MB-436	0
MDA-MB-453 [17]	0
MDA-MB-468 [18]	0
SK-BR-3	0

O=C(c1cc(Cc2n[nH]c(=O)c3ccccc23)ccc1F)N1CCN(C(=O)C2CC2)CC1 [Olaparib]
normalised viability [%]
Conditions	3 nM	10 nM	30 nM	100 nM	1000 nM	10000 nM
BT-474 [1]	–	109	–	–	104	98.2
BT-549 [2]	–	95	–	–	90.8	84.9
CAL-51 [4]	107	–	98.5	97.7	–	–
CAL-85-1 [5]	87.7	–	74	90.5	–	–
CAL-148 [3]	76.5	–	87.8	83.3	–	–
HCC1143	–	81.6	–	–	92.9	80.2
HCC1599 [6]	–	93.8	–	–	114	94.2
Hs578T [7]	–	110	–	–	109	75.7
MDA-MB-453 [8]	109	–	92.3	100	–	–
MDA-MB-468 [9]	–	102	–	–	89.8	65.8
MFM-223	–	98.3	–	–	98.8	114

Conditions	drug sensitivity score
BT-474 [10]	0
BT-549 [11]	0
CAL-51 [13]	3.33
CAL-85-1 [14]	0
CAL-148 [12]	0
HCC1599 [15]	0
HDQ-P1	0
Hs578T [16]	0
MDA-MB-231	0
MDA-MB-436	0
MDA-MB-453 [17]	0
MDA-MB-468 [18]	2.78
SK-BR-3	0.543

CO[C@H](C(=O)[C@@H](O)[C@@H](C)O)[C@@H]1Cc2cc3cc(O[C@H]4C[C@@H](O[C@@H]5C[C@@H](O)[C@H](O)[C@@H](C)O5)[C@H](O)[C@@H](C)O4)c(C)c(O)c3c(O)c2C(=O)[C@H]1O[C@H]1C[C@@H](O[C@@H]2C[C@@H](O)[C@@H](O[C@@H]3C[C@](C)(O)[C@H](O)[C@@H](C)O3)[C@@H](C)O2)[C@H](O)[C@@H](C)O1 [Plicamycin]
normalised viability
Conditions	3 nM	10 nM	30 nM	100 nM	1000 nM	10000 nM
BT-474 [1]	–	122% and 103%	–	–	36% and 23.9%	22.1% and 26.4%
BT-549 [2]	–	94.7% and 83.2%	–	–	6.74% and 5.38%	6.68% and 5.22%
CAL-51 [4]	99.7% and 119%	–	96.1% and 112%	62.3% and 61.2%	–	–
CAL-85-1 [5]	87.3% and 88.3%	–	89.2% and 83.9%	51.5% and 39.5%	–	–
CAL-148 [3]	87.7%	–	95.3% and 99.5%	26% and 38.8%	–	–
HCC1143	–	84.9% and 62.2%	–	–	22% and 14.7%	16.7% and 14.6%
HCC1599 [6]	–	89.6% and 108%	–	–	22.3% and 22.2%	15.2% and 19.4%
Hs578T [7]	–	100% and 82.1%	–	–	3.62% and 2.96%	2.27% and 1.73%
MDA-MB-453 [8]	109% and 113%	–	99.8% and 92.6%	48.3% and 34.6%	–	–
MDA-MB-468 [9]	–	91.4% and 92.1%	–	–	3.16% and 3.32%	2.7% and 3.47%
MFM-223	–	103% and 87.9%	–	–	20.3% and 16.5%	9.96% and 7.4%

Conditions	drug sensitivity score
BT-474 [10]	16.8 and 17.6
BT-549 [11]	27.1 and 27.9
CAL-51 [13]	22.1 and 22.3
CAL-85-1 [14]	22.8 and 23.8
CAL-148 [12]	25.6 and 24.2
HCC1599 [15]	18.9 and 20.2
HDQ-P1	17.6 and 22.2
Hs578T [16]	28 and 31.7
MDA-MB-231	26 and 26.4
MDA-MB-436	23.3 and 27.5
MDA-MB-453 [17]	22.7 and 24.3
MDA-MB-468 [18]	29.9 and 30.3
SK-BR-3	25 and 27.1
